From patent publication US20090023735A1, “Sulphonamide Derivatives” (priority 2005, published 2009)
Where a name gives a salt, the structure may show the parent alone.

Columns and labels:
[1] = target: T1, α2β1 integrin (Homo sapiens, UniProt P17301); assay: CHO-α2β1 cell adhesion on type I collagen; format: cell-based; details: CHO cells expressing wild type α2 integrin on collagen type I coated wells, 2 h
T1 construct: expressed in transfected cells; host or cells: CHO cell clone
T1 sequence (P17301 30-1181): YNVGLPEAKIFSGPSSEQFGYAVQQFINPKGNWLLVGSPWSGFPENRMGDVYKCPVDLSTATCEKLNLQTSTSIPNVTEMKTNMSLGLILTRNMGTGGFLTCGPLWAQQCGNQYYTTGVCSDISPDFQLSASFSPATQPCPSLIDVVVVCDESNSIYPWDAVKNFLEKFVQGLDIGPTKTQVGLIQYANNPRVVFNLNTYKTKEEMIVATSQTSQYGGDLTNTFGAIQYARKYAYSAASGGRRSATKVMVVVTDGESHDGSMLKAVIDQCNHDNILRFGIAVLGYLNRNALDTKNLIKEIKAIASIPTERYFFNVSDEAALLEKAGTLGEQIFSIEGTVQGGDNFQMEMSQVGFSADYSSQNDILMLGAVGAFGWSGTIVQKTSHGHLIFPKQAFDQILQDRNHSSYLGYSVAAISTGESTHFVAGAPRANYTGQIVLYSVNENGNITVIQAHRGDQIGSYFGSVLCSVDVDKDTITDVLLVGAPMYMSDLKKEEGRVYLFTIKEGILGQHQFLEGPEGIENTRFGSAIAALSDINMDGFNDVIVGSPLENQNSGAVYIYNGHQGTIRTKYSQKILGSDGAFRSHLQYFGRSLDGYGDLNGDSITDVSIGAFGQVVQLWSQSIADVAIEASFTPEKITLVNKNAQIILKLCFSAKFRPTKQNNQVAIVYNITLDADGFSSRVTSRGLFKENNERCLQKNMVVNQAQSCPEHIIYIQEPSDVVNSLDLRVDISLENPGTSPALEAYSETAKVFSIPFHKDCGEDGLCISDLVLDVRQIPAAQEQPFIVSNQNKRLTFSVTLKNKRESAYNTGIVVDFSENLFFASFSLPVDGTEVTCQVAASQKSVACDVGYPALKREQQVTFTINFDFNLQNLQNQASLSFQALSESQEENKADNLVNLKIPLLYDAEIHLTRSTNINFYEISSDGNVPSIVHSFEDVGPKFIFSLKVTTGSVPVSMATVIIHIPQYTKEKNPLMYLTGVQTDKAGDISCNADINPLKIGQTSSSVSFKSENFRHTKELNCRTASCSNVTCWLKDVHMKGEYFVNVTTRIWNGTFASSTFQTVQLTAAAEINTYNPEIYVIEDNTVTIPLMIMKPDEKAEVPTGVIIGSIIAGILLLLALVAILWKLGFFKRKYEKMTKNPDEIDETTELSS
Protocol: Chinese Hamster Ovary (CHO) cell clone expressing wild type α2 integrin was used in cell adhesion assay. Cells were suspended in serum free medium containing 0.1 mg/ml cycloheximide (Sigma) and the compounds were preincubated with the cells prior to transfer to the wells. Cells (150000/well) were allowed to attach on collagen type I coated wells (in the presence and absence of inhibitor compounds) for 2 h at +37° C. and after that non-adherent cells were removed. Fresh serum free medium was added and the living cells were detected using a cell viability kit (Roche) according to the manufacturer's protocol.

[2] = test system: Prostate cancer cells (PC-3); assay: Cell invasion assay: invasion of PC-3 cells through Matrigel; details: Homo sapiens, PC-3, 72 h, read-out: EC50 in cell invasion (μM)
Protocol: Prostate cancer cells (PC-3) expressing α2β1 endogenously were used to test the in vitro anticancer potential of the inhibitors of the present invention.
Inserts were stored at −20° C. Before the experiments inserts were allowed to adjust to the room temperature. 500 μl of serum free media (Ham's F12K medium, 2 mM L-glutamine, 1.5 g/l sodium bicarbonate) was added into the inserts and allowed to rehydrate at 37° C. in cell incubator for two hours. The remaining media was aspirated. PC-3 cells were detached, pelleted and suspended into serum free media (50000 cells/500 μl). 300 μl of cell suspension was added into the insert in the absence (control) or presence of the inhibitor according to the present invention. Inserts were placed on the 24-well plates; each well containing 700 μl of cell culture media with 3% of fetal bovine serum as chemo-attractant. Cells were allowed to invade for 72 hours at 37° C. in cell incubator. Inserts were washed with 700 μl PBS, and fixed with 4% paraformaldehyde for 10 minutes. Paraformaldehyde was aspirated and cells were washed with 700 μl of PBS and inserts were stained by incubation with hematoxylin for 1 minute. The stain was removed by washing the inserts with 700 μl of PBS. Inserts were allowed to dry. Fixed invaded cells were calculated under the microscope. Invasion % was calculated as a comparison to the control.

[3] = test system: platelet aggregation in whole blood; details: PFA-100, collagen plus Epinephrin membrane, compared to control (DMSO), FIG. 1
Protocol: The PFA-100 is a high shear-inducing device that simulates primary haemostasis after injury of a small vessel. The system comprises a test-cartridge containing a biologically active membrane coated with collagen plus Epinephrin. An anticoaculated whole blood sample was run through a capillary under a constant vacuum. […] The time required to obtain full occlusion of the aperture was designated as the “closure time”. Each compound was added to the whole blood sample and the closure time was measured with PFA-100.
Blood was collected from a donor via venipuncture into evacuated blood collection tubes containing 3.2% buffered sodium sitrate as anticoagulant. Blood was aliquoted into 15 mL tubes and treated with either inhibitory compounds or controls (DMSO). Samples were kept at room temperature with rotation for 10 minutes and after that the closure time of the blood was measured.
Acquisitions resulting in a closure time exceeding the range of measurement of the instrument (>300 seconds) were assigned a value of 300 seconds. Mean and standard deviations were calculated for each treatment. Student's t-test was applied to the resultant data.

Row | SMILES | inhibition at 50 µM [1] [%] | other results
1 | COCCN(c1ccc(N(C)C)cc1)S(=O)(=O)c1cccc(-c2ccc(F)cc2)c1 [Compound 353, 4′-fluoro-biphenyl-3-sulfonic acid (4-dimethylamino-phenyl)-(2-methoxy-ethyl)-amide] | 11 | –
2 | CN(C)CCN(c1ccc(N(C)C)cc1)S(=O)(=O)c1cccc(-c2ccc(F)cc2)c1 [Compound 354, 4′-fluoro-biphenyl-3-sulfonic acid (2-dimethylamino-ethyl)-(4-dimethylamino-phenyl)-amide] | 78 | –
3 | CN(C)c1ccc(N(CCN2CCOCC2)S(=O)(=O)c2cccc(-c3ccc(F)cc3)c2)cc1 [Compound 355, 4′-fluoro-biphenyl-3-sulfonic acid (4-dimethylamino-phenyl)-(2-morpholin-4-yl-ethyl)-amide] | 18 | –
4 | CN(C)c1ccc(N(CCn2ccnc2)S(=O)(=O)c2cccc(-c3ccc(F)cc3)c2)cc1 [Compound 358, 4′-fluoro-biphenyl-3-sulfonic acid (4-dimethylamino-phenyl)-(2-imidazol-1-yl-ethyl)-amide] | 71 | –
5 | CN(C)c1ccc(N(CCO)S(=O)(=O)c2cccc(-c3ccc(F)cc3)c2)cc1 [Compound 359, 4′-fluoro-biphenyl-3-sulfonic acid (4-dimethylamino-phenyl)-(2-hydroxy-ethyl)-amide] | 42 | –
6 | O=S(=O)(Nc1ccc(-c2cnco2)cc1)c1cccc(-c2ccc(F)cc2)c1 [Compound 378, 4′-fluoro-biphenyl-3-sulfonic acid (4-(1,3-oxazol-5-yl)-phenyl)-amide] | 22 | –
7 | CC(=O)c1ccc(NS(=O)(=O)c2cccc(-c3ccc(F)cc3)c2)cc1 [Compound 383, 4′-fluoro-biphenyl-3-sulfonic acid (4-acetyl-phenyl)-amide] | 26 | –
8 | O=C(c1ccccc1)c1ccc(NS(=O)(=O)c2cccc(-c3ccc(F)cc3)c2)cc1 [Compound 384, 4′-fluoro-biphenyl-3-sulfonic acid (4-benzoyl-phenyl)-amide] | 65 | –
9 | O=S(=O)(Nc1cccc(-c2ccc(F)cc2)c1)c1ccc(Cl)cc1Cl [Compound 403, 2,4-cichlorophenylsulfonic acid (3-(4-fluorophenyl)phenyl)-amide] | 56 | –
10 | CN(c1ccc(NC(=O)N2CCNC2=O)cc1)S(=O)(=O)c1cccc(-c2ccc(F)cc2)c1 [Compound 430, 2-oxo-imidazolidine-1-carboxylic acid {4-[(4′-fluoro-bi-phenyl-3-sulfonyl)-methyl-amino]-phenyl)-amide] | 53 | EC50 [2]: 12 µM
11 | O=C(c1ccccc1)c1cccc(NS(=O)(=O)c2cccc(-c3ccc(F)cc3)c2)c1 [Compound 432, 4′-fluoro-biphenyl-3-sulfonic acid (3-benzoyl-phenyl)-amide] | 72 | EC50 [2]: 1 µM
12 | O=C(c1ccccc1)c1ccc(NS(=O)(=O)c2cccc(-c3ccc(F)cc3)c2)cc1 [Compound 434, 4′-fluoro-biphenyl-3-sulfonic acid (4-benzoyl-phenyl)-amide sodium salt] | – | closure time of the blood [3]: increase the closure time; inhibition at 50 µM ([1]; CHO): 78%
13 | O=[N+]([O-])c1ccc(NS(=O)(=O)c2cccc(-c3ccc(F)cc3)c2)cc1 [Compound 440, 4′-fluoro-biphenyl-3-sulfonic acid (4-nitro-phenyl)-amide] | 59 | EC50 [2]: 8.3 µM
14 | Cn1cccc1C(=O)Nc1ccc(NS(=O)(=O)c2cccc(-c3ccc(F)cc3)c2)cc1 [Compound 442, 1-methyl-1H-pyrrole-2-carboxylic acid [4-(4′-fluoro-bi-phenyl-3-sulfonylamino)-phenyl]-amide] | 21 | –
15 | N#Cc1ccc(NS(=O)(=O)c2cccc(-c3ccc(F)cc3)c2)cc1 [Compound 448, 4′-fluoro-biphenyl-3-sulfonic acid (4-cyano-phenyl)-amide] | 58 | EC50 [2]: 27 µM
16 | Cc1cc(NC(=O)c2ccc(NS(=O)(=O)c3cccc(-c4ccc(F)cc4)c3)cc2)no1 [Compound 456, 4-(4′-fluoro-biphenyl-3-sulfonylamino)-N-(5-methyl-isoxazol-3-yl)-benzamide] | 13 | –
17 | O=C(c1ccc(F)cc1)c1ccc(NS(=O)(=O)c2cccc(-c3ccc(F)cc3)c2)cc1 [Compound 458, 4′-fluoro-biphenyl-3-sulfonic acid [4-((4-fluorophenyl)-4-carbonyl)-phenyl]-amide] | 66 | –
